Data taken from US8470765B2, “Polypeptides and antibacterial or antiseptic use of same” (AnGes MG, Inc., priority 2009, dated 2013).
Values after ≈ are worked out from the molar mass of the structure shown. Where two headings read alike, the source gives them in different places. No end group written: not given here.

Key:
[1] = tested on: Salmonella enteritidis IID 604; conditions: IID 604
[2] = tested on: Escherichia coli ATCC 25922; assay: ATP Assay (viability at 3 hours), Table 6; assay type: cell-based; conditions: for Escherichia coli ATP (viability, relative value to negative control): 3 h, 5 μg/mL; for viability at 10 µg/mL: ATCC25922, 3 h, read-out: Escherichia coli ATP (viability, relative value to negative control)
Method in brief: (§1)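 Log-phase bacteria at about 10^5 CFU/mL final in Mueller-Hinton broth were exposed 3 h at 37 °C to peptide (solution prepared at 10 μg/mL before 1:1 mixing with inoculum). ATP (BacTiter-Glo luminescence) relative to untreated wells defined viability; two independent experiments.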

[3] = tested on: Pseudomonas aeruginosa ATCC 27853; assay: ATP Assay (viability at 3 hours), Table 6; assay type: cell-based; conditions: for Pseudomonas aeruginosa ATP (viability, relative value to negative control): 3 h, 5 μg/mL; for viability at 10 µg/mL: ATCC27853, 3 h, read-out: Pseudomonas aeruginosa ATP (viability, relative value to negative control)
Method in brief: as §1

[4] = tested on: Staphylococcus aureus ATCC29213; assay: ATP Assay (viability at 3 hours), Table 6; assay type: cell-based; conditions: for Staphylococcus aureus ATP (viability, relative value to negative control): 3 h, 5 μg/mL; for viability at 10 µg/mL: ATCC29213, 3 h, read-out: Staphylococcus aureus ATP (viability, relative value to negative control)
Method in brief: as §1

[5] = tested on: Staphylococcus epidermidis JCM 2414; assay: microbe, parasite or virus in culture; assay type: cell-based; conditions: for MIC: Staphylococcus epidermidis, JCM2414, read-out: MIC Staphylococcus epidermidis
Method in brief: (§2)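 Visual MIC by microdilution in MHB; ~10^5 CFU/mL final; peptide solution prepared at 128 μg/mL; 37° C for 16–24 h or a strain-suited time.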

[6] = tested on: Escherichia coli ATCC 25922; assay: microbe, parasite or virus in culture; assay type: cell-based; conditions: for MIC: Escherichia coli, ATCC25922, read-out: MIC Escherichia coli
Method in brief: as §2

[7] = tested on: Klebsiella pneumoniae JCM 1662; assay: microbe, parasite or virus in culture; assay type: cell-based; conditions: for MIC: Klebsiella pneumoniae, JCM1662
Method in brief: as §2

[8] = tested on: Pseudomonas aeruginosa ATCC 27853; assay: microbe, parasite or virus in culture; assay type: cell-based; conditions: for MIC: Pseudomonas aeruginosa, ATCC27853, read-out: MIC Pseudomonas aeruginosa
Method in brief: as §2

[9] = tested on: Staphylococcus aureus ATCC29213; assay: microbe, parasite or virus in culture; assay type: cell-based; conditions: for MIC: Staphylococcus aureus, ATCC29213, read-out: MIC Staphylococcus aureus
Method in brief: as §2

[10] = tested on: Enterobacter aerogenes JCM 1235; assay: microbe, parasite or virus in culture; assay type: cell-based; conditions: for MIC: Klebsiella aerogenes, JCM1235
Method in brief: as §2

[11] = tested on: Trichophyton mentagrophytes NBRC6124; conditions: NBRC6124
[12] = tested on: Alternaria alternata JCM5800; conditions: JCM5800
[13] = tested on: Rhizopus oryzae NBRC 31005
[14] = tested on: Enterobacter cloacae JCM 1232; assay type: cell-based; conditions: Table 4; two tests, first/second value where not identical
Method: Bacteria (Escherichia coli ATCC 25922, Pseudomonas aeruginosa ATCC 27853, Staphylococcus aureus ATCC29213, Klebsiella pneumoniae JCM 1662, Enterobacter cloacae JCM 1232, Enterobacter aerogenes JCM 1235 and Staphylococcus epidermidis JCM 2414) were inoculated to Mueller-Hinton broth: MHB or LB medium, and cultured at a temperature and period suited for each strain. From the thus obtained colonies, each strain was inoculated to a fresh liquid medium and cultured for 16 to 20 hours. Then an aliquot having a volume (10 to 50 appropriate to each strain was inoculated to a fresh liquid medium and cultured for 4 to 6 hours, followed by the measurement of the absorbance at 600 nm. After comparing the turbidity with McFarland #0.5, the resultant was diluted with a medium. Each strain was added to about 10^5 CFU/mL (final concentration). Each of the peptide solutions to be tested was diluted with MHB to obtain a solution of 128 μg/mL. […] As controls, tobramycin (TOB: aminoglucoside antibiotic), oxacillin (OX:β-lactam antibiotic), meropenem (MEPM: carbapenem antibiotic) and ciprofloxacin (new quinolone antibiotic) were used. […] To a 96-well microtiter plate, 0.1 mL of the inoculation solution and 0.1 mL of the peptide- or positive control-containing medium having the respective concentration were added, and cultured at 37° C. for 16 to 24 hours (or a time period suited for the growth of the respective strain). The well not containing the sample was used as a negative control. After the culturing, the growth was visually observed, and the minimum concentration at which the growth was inhibited was defined as the minimum growth inhibition concentration (MIC). The medium used in this test for bacteria was Mueller-Hinton broth. Independent experiments were carried out twice or more for each strain.

[15] = tested on: Micrococcus luteus NBRC13867
[16] = tested on: Streptococcus pyogenes JCM5674
[17] = tested on: Cryptococcus neoformans IFM 46660
[18] = tested on: Actinobacillus actinomycetemcomitans JCM2434
[19] = Table 4, two tests, first/second value where not identical

GRLKRMGKRLKRKIQKWARW-NH2 [SRP-14]
MIC Salmonella Enteritidis [1]: 4 µg/mL
Escherichia coli ATP (viability, relative value to negative control) [2]: 1.2
Pseudomonas aeruginosa ATP (viability, relative value to negative control) [3]: 1.0
Staphylococcus aureus ATP (viability, relative value to negative control) [4]: 0.3
MIC Staphylococcus epidermidis [5, 19]: 8/16
MIC Escherichia coli ([6]; ATCC 25922): 16 µg/mL
MIC Klebsiella pneumoniae [7, 19]: 16/128
MIC Pseudomonas aeruginosa ([8]; ATCC 27853): 16 µg/mL
MIC Staphylococcus aureus ([9]; ATCC29213): 16 µg/mL
MIC Enterobacter aerogenes [10, 19]: 16/32
MIC Trichophyton mentagrophytes [11]: 16 µg/mL
MIC Alternaria alternata [12]: 32 µg/mL
MIC Rhizopus oryzae ([13]; NBRC 31005): 8 µg/mL
MIC Enterobacter cloacae [14]: 32/128
MIC Micrococcus luteus [15]: 4 µg/mL
MIC Streptococcus pyogenes [16]: 16 µg/mL
MIC Cryptococcus neoformans ([17]; IFM 46660): 1 µg/mL
MIC Actinobacillus actinomycetemcomitans [18]: 64 µg/mL

NC[C@H]1O[C@H](O[C@H]2[C@H](O)[C@@H](O[C@H]3O[C@H](CO)[C@@H](O)[C@H](N)[C@H]3O)[C@H](N)C[C@@H]2N)[C@H](N)C[C@@H]1O [tobramycin, reference compound]
viability at 10 µg/mL [2]: 74.3%
viability at 10 µg/mL [3]: 1.2%
viability at 10 µg/mL [4]: 6.7%
MIC [5, 19]: 0.12 to 1 µg/mL (≈ 0.257 to 2.14 µM)
MIC [6, 19]: 0.25 to 1 µg/mL (≈ 0.535 to 2.14 µM)
MIC [7, 19]: < 4000 µg/mL
MIC [8, 19]: 0.25 to 1 µg/mL (≈ 0.535 to 2.14 µM)
MIC [9, 19]: 0.12 to 1 µg/mL (≈ 0.257 to 2.14 µM)
MIC [10, 19]: < 4000 µg/mL

IFLHRLKRMRKRLKRKLRLW-OH [SRP-7]
MIC Salmonella Enteritidis [1]: 4 µg/mL
Escherichia coli ATP (viability, relative value to negative control) [2]: 1.6
Pseudomonas aeruginosa ATP (viability, relative value to negative control) [3]: 1.0
Staphylococcus aureus ATP (viability, relative value to negative control) [4]: 0.2
MIC Staphylococcus epidermidis ([5]; JCM 2414): 8 µg/mL
MIC Escherichia coli ([6]; ATCC 25922): 32 µg/mL
MIC Klebsiella pneumoniae [7, 19]: 16/64
MIC Pseudomonas aeruginosa [8, 19]: 8/16
MIC Staphylococcus aureus ([9]; ATCC29213): 32 µg/mL
MIC Enterobacter aerogenes [10, 19]: 16/64
MIC Trichophyton mentagrophytes [11]: 32 µg/mL
MIC Alternaria alternata [12]: 32 µg/mL
MIC Rhizopus oryzae [13, 19]: 8/16
MIC Enterobacter cloacae [14]: 16/128
MIC Micrococcus luteus [15]: 2 µg/mL
MIC Streptococcus pyogenes [16]: 32 µg/mL
MIC Cryptococcus neoformans ([17]; IFM 46660): 2 µg/mL
MIC Actinobacillus actinomycetemcomitans [18]: 128 µg/mL

C[C@@H](O)[C@H]1C(=O)N2C(C(=O)O)=C(S[C@@H]3CN[C@H](C(=O)N(C)C)C3)[C@H](C)[C@H]12 [meropenem, reference compound]
viability at 10 µg/mL [2]: 15.3%
viability at 10 µg/mL [3]: 16.1%
viability at 10 µg/mL [4]: 15.7%
MIC [5, 19]: 0.03 to 0.12 µg/mL (≈ 0.0782 to 0.313 µM)
MIC [6, 19]: 0.008 to 0.06 µg/mL (≈ 0.0209 to 0.156 µM)
MIC [7, 19]: < 4000 µg/mL
MIC [8, 19]: 0.25 to 1 µg/mL (≈ 0.652 to 2.61 µM)
MIC [9, 19]: 0.03 to 0.12 µg/mL (≈ 0.0782 to 0.313 µM)
MIC [10, 19]: < 4000 µg/mL

RLKRMRKRLKRKLRLWHRKRYK-NH2 [SRP-8]
MIC Salmonella Enteritidis [1]: 64 µg/mL
Escherichia coli ATP (viability, relative value to negative control) [2]: 1.7
Pseudomonas aeruginosa ATP (viability, relative value to negative control) [3]: 0.9
Staphylococcus aureus ATP (viability, relative value to negative control) [4]: 0.4
MIC Staphylococcus epidermidis [5, 19]: 8/16
MIC Escherichia coli [6, 19]: 16/32
MIC Klebsiella pneumoniae ([7]; JCM 1662): 32 µg/mL
MIC Pseudomonas aeruginosa ([8]; ATCC 27853): 16 µg/mL
MIC Staphylococcus aureus ([9]; ATCC29213): 16 µg/mL
MIC Enterobacter aerogenes ([10]; JCM 1235): 64 µg/mL
MIC Trichophyton mentagrophytes [11]: 32 µg/mL
MIC Alternaria alternata [12]: 32 µg/mL
MIC Rhizopus oryzae ([13]; NBRC 31005): 8 µg/mL
MIC Enterobacter cloacae [14]: 128< mg/mL
MIC Micrococcus luteus [15]: 2 µg/mL
MIC Streptococcus pyogenes [16]: 64 µg/mL
MIC Cryptococcus neoformans [17, 19]: 1/2
MIC Actinobacillus actinomycetemcomitans [18]: > 128 µg/mL

RLKRMRKRLKRKLRLW-NH2 [SRP-17]
MIC Salmonella Enteritidis [1]: 8 µg/mL
Escherichia coli ATP (viability, relative value to negative control) [2]: 0.4
Pseudomonas aeruginosa ATP (viability, relative value to negative control) [3]: 1.0
Staphylococcus aureus ATP (viability, relative value to negative control) [4]: 0.3
MIC Staphylococcus epidermidis [5, 19]: 4/8
MIC Escherichia coli [6, 19]: 16/32
MIC Klebsiella pneumoniae ([7]; JCM 1662): 32 µg/mL
MIC Pseudomonas aeruginosa [8, 19]: 32/64
MIC Staphylococcus aureus [9, 19]: 16/32
MIC Enterobacter aerogenes ([10]; JCM 1235): 128 µg/mL
MIC Trichophyton mentagrophytes [11]: 16 µg/mL
MIC Alternaria alternata [12]: 32 µg/mL
MIC Rhizopus oryzae ([13]; NBRC 31005): 8 µg/mL
MIC Enterobacter cloacae [14]: 128< mg/mL
MIC Micrococcus luteus [15]: 1 µg/mL
MIC Streptococcus pyogenes [16]: 128 µg/mL
MIC Cryptococcus neoformans ([17]; IFM 46660): 2 µg/mL
MIC Actinobacillus actinomycetemcomitans [18]: > 128 µg/mL

KNLRRIIRKIIHIIKKYG-NH2 [Ovispirin-1, reference compound]
MIC Salmonella Enteritidis [1]: 16 µg/mL
MIC Staphylococcus epidermidis [5, 19]: 8/16
MIC Escherichia coli [6, 19]: 8/16
MIC Klebsiella pneumoniae [7, 19]: 8/16
MIC Pseudomonas aeruginosa [8, 19]: 16/32
MIC Staphylococcus aureus ([9]; ATCC29213): 16 µg/mL
MIC Enterobacter aerogenes [10, 19]: 16/32
MIC Trichophyton mentagrophytes [11]: 32 µg/mL
MIC Alternaria alternata [12]: 64 µg/mL
MIC Rhizopus oryzae ([13]; NBRC 31005): > 128 µg/mL
MIC Enterobacter cloacae [14]: 32/64
MIC Micrococcus luteus [15]: 2 µg/mL
MIC Streptococcus pyogenes [16]: 32 µg/mL
MIC Cryptococcus neoformans [17, 19]: 2/4
MIC Actinobacillus actinomycetemcomitans [18]: 128 µg/mL

LIFLHRLKRMRKRLKRKLRL-NH2 [SRP-12]
Escherichia coli ATP (viability, relative value to negative control) [2]: 6.5
Pseudomonas aeruginosa ATP (viability, relative value to negative control) [3]: 1.0
Staphylococcus aureus ATP (viability, relative value to negative control) [4]: 0.2
MIC Staphylococcus epidermidis [5, 19]: 4/8
MIC Escherichia coli ([6]; ATCC 25922): 32 µg/mL
MIC Klebsiella pneumoniae ([7]; JCM 1662): 128 µg/mL
MIC Pseudomonas aeruginosa [8, 19]: 16/32
MIC Staphylococcus aureus ([9]; ATCC29213): 16 µg/mL
MIC Enterobacter aerogenes [10, 19]: 32/64
MIC Rhizopus oryzae ([13]; NBRC 31005): 8 µg/mL
MIC Enterobacter cloacae [14]: 128< mg/mL
MIC Cryptococcus neoformans ([17]; IFM 46660): 1 µg/mL
